Data: paper PMC11721313, “Sustained inhibition of CSF1R signaling augments antitumor immunity through inhibiting tumor-associated macrophages” (JCI Insight, 2025)

How the values were obtained:
Assay type in all cases: cell-based
[1] = molecular target: T1, CSF1R (colony-stimulating factor 1 receptor) (Mus musculus, UniProt P09581); test: Western blot of M-CSF-induced CSF1R phosphorylation in murine BMDMs and RAW264 cells; inhibition persists after drug washout
T1 sequence (P09581 20-977): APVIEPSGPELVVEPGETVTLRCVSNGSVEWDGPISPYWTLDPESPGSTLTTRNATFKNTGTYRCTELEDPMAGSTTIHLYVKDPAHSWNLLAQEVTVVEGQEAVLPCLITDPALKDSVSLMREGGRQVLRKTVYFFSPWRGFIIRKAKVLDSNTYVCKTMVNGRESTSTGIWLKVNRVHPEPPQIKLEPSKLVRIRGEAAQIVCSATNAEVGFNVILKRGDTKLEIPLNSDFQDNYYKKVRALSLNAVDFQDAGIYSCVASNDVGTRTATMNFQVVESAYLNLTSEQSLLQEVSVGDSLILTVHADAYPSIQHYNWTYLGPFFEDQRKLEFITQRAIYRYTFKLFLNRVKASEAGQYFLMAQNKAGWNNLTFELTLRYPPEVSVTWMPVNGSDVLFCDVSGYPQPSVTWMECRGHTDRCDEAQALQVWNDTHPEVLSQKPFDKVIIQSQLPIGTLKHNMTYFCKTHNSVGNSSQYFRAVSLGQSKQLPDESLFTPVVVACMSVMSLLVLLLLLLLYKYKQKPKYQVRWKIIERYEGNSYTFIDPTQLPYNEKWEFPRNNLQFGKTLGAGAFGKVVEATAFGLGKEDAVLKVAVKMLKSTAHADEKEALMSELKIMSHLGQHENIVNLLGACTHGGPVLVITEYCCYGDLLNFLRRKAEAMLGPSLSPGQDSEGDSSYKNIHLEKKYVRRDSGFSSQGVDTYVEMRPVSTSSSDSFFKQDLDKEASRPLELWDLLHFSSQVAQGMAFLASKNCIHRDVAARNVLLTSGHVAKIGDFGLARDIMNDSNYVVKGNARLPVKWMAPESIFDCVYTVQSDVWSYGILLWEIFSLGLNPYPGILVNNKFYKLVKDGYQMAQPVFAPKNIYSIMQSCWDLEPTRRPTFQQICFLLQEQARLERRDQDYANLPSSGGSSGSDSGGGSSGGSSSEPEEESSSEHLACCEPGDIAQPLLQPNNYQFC

[2] = molecular target: CSF1R (colony-stimulating factor 1 receptor) (Homo sapiens, UniProt P07333); test: Western blot of M-CSF-induced CSF1R phosphorylation in human monocyte-derived macrophages
Sequence of CSF1R (colony-stimulating factor 1 receptor) (Homo sapiens, UniProt P07333) (P07333 20-972): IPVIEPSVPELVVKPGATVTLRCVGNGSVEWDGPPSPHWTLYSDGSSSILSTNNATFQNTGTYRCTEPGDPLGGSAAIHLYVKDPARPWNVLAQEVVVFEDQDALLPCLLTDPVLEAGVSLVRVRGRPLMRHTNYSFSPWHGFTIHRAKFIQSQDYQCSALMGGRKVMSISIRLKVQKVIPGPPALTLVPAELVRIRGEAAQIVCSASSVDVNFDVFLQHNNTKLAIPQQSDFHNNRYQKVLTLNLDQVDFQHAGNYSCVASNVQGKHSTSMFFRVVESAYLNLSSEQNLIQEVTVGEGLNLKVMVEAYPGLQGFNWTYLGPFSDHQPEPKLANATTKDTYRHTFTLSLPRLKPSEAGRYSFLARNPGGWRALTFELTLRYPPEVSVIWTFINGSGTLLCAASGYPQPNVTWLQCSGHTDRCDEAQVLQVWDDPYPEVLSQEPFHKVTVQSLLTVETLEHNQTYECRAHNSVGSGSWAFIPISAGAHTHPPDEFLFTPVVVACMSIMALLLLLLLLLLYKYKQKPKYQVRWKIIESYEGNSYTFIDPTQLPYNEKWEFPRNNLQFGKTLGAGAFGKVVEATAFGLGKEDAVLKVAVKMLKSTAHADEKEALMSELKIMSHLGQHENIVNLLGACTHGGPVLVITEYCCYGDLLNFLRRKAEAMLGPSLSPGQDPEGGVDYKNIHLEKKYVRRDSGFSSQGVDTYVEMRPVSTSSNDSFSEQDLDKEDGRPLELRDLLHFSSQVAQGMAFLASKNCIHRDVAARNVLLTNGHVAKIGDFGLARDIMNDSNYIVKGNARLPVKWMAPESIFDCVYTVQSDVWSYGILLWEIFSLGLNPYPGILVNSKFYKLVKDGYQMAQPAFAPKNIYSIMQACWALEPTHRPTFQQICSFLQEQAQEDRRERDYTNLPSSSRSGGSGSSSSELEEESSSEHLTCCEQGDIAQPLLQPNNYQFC

[3] = molecular target: T1, CSF1R (colony-stimulating factor 1 receptor); test: Western blot of CSF1R signaling in RAW264 cells with and without drug removal (reference CSF1R inhibitor)

| SMILES | Western blot of M-CSF-induced CSF1R phosphorylation in murine BMDMs and RAW264 c [1] | Western blot of M-CSF-induced CSF1R phosphorylation in human monocyte-derived ma [2] | Western blot of CSF1R signaling in RAW264 cells with and without drug removal (r) [3] |
| --- | --- | --- | --- |
| CCCNc1nc(Nc2ccc(C#N)cc2)ncc1C#CCCCNC(=O)[C@H](C)N(C)C(=O)/C=C/CN(C)C [FF-10101] | upon reexposure to M-CSF was markedly inhibited by FF-10101 in a dose-dependent manner | human monocyte-derived macrophages upon reexposure to M-CSF was markedly inhibited by FF-10101 in a dose-dependent manner | – |
| CNC(=O)c1cc(Oc2ccc3nc(N[C@@H]4CCCC[C@H]4O)sc3c2)ccn1 [BLZ945] | – | – | the inhibitory activity of BLZ945, another CSF1R inhibitor with an IC50 comparable to that of FF-10101, decreased upon drug removal |
